From ChEMBL document CHEMBL1201862, “PubChem BioAssay data set” (2004)
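Assay format: 96-well plates, 48-hour exposure. GI50 marks 50% less growth.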 Calls of active or inactive are those of the source. Rule as the data show it: active = GI50 up to about 1.1 µM and inactive = higher.

What was measured:
Experiment in all cases: NCI anticancer screen, dose series, 48 h
786-0 = test system: 786-0
A498 = test system: A498
A549 = test system: A549
ACHN = test system: ACHN
CAKI-1 = test system: CAKI-1
CCRF-CEM = test system: CCRF-CEM
COLO 205 = test system: COLO 205
DLD-1 = test system: DLD-1
DMS-114 = test system: DMS-114
DMS-273 = test system: DMS-273
EKVX = test system: EKVX
HCT-116 = test system: HCT-116
HCT-15 = test system: HCT-15
HL-60 = test system: HL-60
HOP-18 = test system: HOP-18
HOP-62 = test system: HOP-62
HOP-92 = test system: HOP-92
HT-29 = test system: HT-29
IGROV-1 = test system: IGROV-1
K562 = test system: K562
KM-20L2 = test system: KM-20L2
KM12 = test system: KM12
LOX IMVI = test system: LOX IMVI
LXFL 529 = test system: LXFL 529
M14 = test system: M14
M19-MEL = test system: M19-MEL
MOLT-4 = test system: MOLT-4
Malme-3M = test system: Malme-3M
NCI-H226 = test system: NCI-H226
NCI-H23 = test system: NCI-H23
NCI-H460 = test system: NCI-H460
NCI-H522 = test system: NCI-H522
OVCAR-3 = test system: OVCAR-3
OVCAR-4 = test system: OVCAR-4
OVCAR-5 = test system: OVCAR-5
OVCAR-8 = test system: OVCAR-8
RPMI-8226 = test system: RPMI-8226
RXF 393 = test system: RXF 393
RXF 631 = test system: RXF 631
SF-268 = test system: SF-268
SF-295 = test system: SF-295
SF-539 = test system: SF-539
SK-MEL-28 = test system: SK-MEL-28
SK-MEL-2 = test system: SK-MEL-2
SK-MEL-5 = test system: SK-MEL-5
SK-OV-3 = test system: SK-OV-3
SN12C = test system: SN12C
SNB-19 = test system: SNB-19
SNB-75 = test system: SNB-75
SNB-78 = test system: SNB-78
SR = test system: SR
SW-620 = test system: SW-620
TK-10 = test system: TK-10
U-251 = test system: U-251
UACC-257 = test system: UACC-257
UACC-62 = test system: UACC-62
UO-31 = test system: UO-31
XF498 = test system: XF498
HCC 2998 = test system: HCC 2998

Measured: GI50

CC1(C)c2ccccc2N2C(c3ccccc3)=NOC21C (stereo not drawn)
> 100 µM: HCT-15
inactive: 786-0 > 100 µM | A498 > 100 µM | A549 > 100 µM | ACHN > 100 µM | CAKI-1 > 100 µM | CCRF-CEM > 100 µM | COLO 205 > 100 µM | DLD-1 > 100 µM | DMS-114 > 100 µM | DMS-273 > 100 µM | EKVX > 100 µM | HCT-116 > 100 µM | HL-60 > 100 µM | HOP-18 > 100 µM | HOP-62 > 100 µM | HOP-92 > 100 µM | HT-29 > 100 µM | IGROV-1 > 100 µM | K562 > 100 µM | KM-20L2 > 100 µM | KM12 > 100 µM | LOX IMVI > 100 µM | LXFL 529 > 100 µM | M14 > 100 µM | M19-MEL > 100 µM | MOLT-4 > 100 µM | Malme-3M > 100 µM | NCI-H226 > 100 µM | NCI-H23 > 100 µM | NCI-H460 > 100 µM | NCI-H522 > 100 µM | OVCAR-3 > 100 µM | OVCAR-4 > 100 µM | OVCAR-5 > 100 µM | OVCAR-8 > 100 µM | RPMI-8226 > 100 µM | RXF 393 > 100 µM | RXF 631 > 100 µM | SF-268 > 100 µM | SF-295 > 100 µM | SF-539 > 100 µM | SK-MEL-28 > 100 µM | SK-MEL-2 > 100 µM | SK-MEL-5 > 100 µM | SK-OV-3 > 100 µM | SN12C > 100 µM | SNB-19 > 100 µM | SNB-75 > 100 µM | SNB-78 > 100 µM | SR > 100 µM | SW-620 > 100 µM | TK-10 > 100 µM | U-251 > 100 µM | UACC-257 > 100 µM | UACC-62 > 100 µM | UO-31 > 100 µM

CC(C)N(CCn1c2c3ccccc3ccc2c2oc(=O)c3ccccc3c21)C(C)C
inactive: 786-0 50.4 µM | A498 > 100 µM | A549 > 100 µM | ACHN > 100 µM | CAKI-1 > 100 µM | CCRF-CEM > 100 µM | COLO 205 > 100 µM | DLD-1 > 100 µM | DMS-114 > 100 µM | EKVX > 100 µM | HCT-116 > 100 µM | HL-60 > 100 µM | HOP-18 32.7 µM | HOP-62 > 23.1 µM | HOP-92 > 54.3 µM | HT-29 > 100 µM | IGROV-1 > 100 µM | K562 > 100 µM | KM-20L2 > 100 µM | KM12 > 100 µM | LOX IMVI > 100 µM | LXFL 529 > 100 µM | M14 > 100 µM | M19-MEL > 100 µM | MOLT-4 > 100 µM | Malme-3M > 100 µM | NCI-H226 > 100 µM | NCI-H23 > 100 µM | NCI-H460 > 100 µM | NCI-H522 > 100 µM | OVCAR-3 > 100 µM | OVCAR-4 > 100 µM | OVCAR-5 > 100 µM | OVCAR-8 > 48.6 µM | RPMI-8226 > 100 µM | RXF 393 > 100 µM | RXF 631 > 100 µM | SF-268 > 69.7 µM | SF-295 > 52.2 µM | SF-539 > 43.3 µM | SK-MEL-28 > 100 µM | SK-MEL-2 > 100 µM | SK-OV-3 > 100 µM | SN12C > 100 µM | SNB-19 65.8 µM | SNB-75 25.2 µM | SNB-78 98.9 µM | SR > 100 µM | SW-620 > 100 µM | TK-10 > 100 µM | U-251 > 86.9 µM | UACC-257 > 54.8 µM | UACC-62 > 100 µM | UO-31 > 100 µM | XF498 75.7 µM
> 100 µM: HCT-15

Cc1ccc(-n2c3nc(=O)n(C)c(=O)c-3nc3ccccc32)c(C)c1
inactive: 786-0 5.83 µM | A498 > 10 µM | A549 4.74 µM | ACHN 3.58 µM | CAKI-1 27.6 µM | CCRF-CEM 14.8 µM | COLO 205 3.46 µM | DLD-1 15 µM | DMS-273 4.34 µM | EKVX 8.67 µM | HCC 2998 5.16 µM | HCT-116 11.8 µM | HL-60 6.49 µM | HOP-18 6.62 µM | HOP-62 24.3 µM | HT-29 3.28 µM | IGROV-1 15.1 µM | K562 16.4 µM | KM-20L2 4.92 µM | KM12 8.18 µM | LOX IMVI 12.6 µM | LXFL 529 11.3 µM | M14 4.76 µM | M19-MEL 1.63 µM | MOLT-4 13.9 µM | Malme-3M 3.92 µM | NCI-H226 14.9 µM | NCI-H23 1.9 µM | NCI-H460 3.49 µM | NCI-H522 15.4 µM | OVCAR-3 2.5 µM | OVCAR-4 12 µM | OVCAR-5 18.7 µM | OVCAR-8 8.18 µM | RPMI-8226 12.8 µM | RXF 393 14.6 µM | RXF 631 7.05 µM | SF-268 15.4 µM | SF-295 10.7 µM | SF-539 13.2 µM | SK-MEL-2 12.9 µM | SK-MEL-5 4.73 µM | SK-OV-3 35.1 µM | SN12C 10.9 µM | SNB-19 5.28 µM | SNB-75 13.3 µM | SNB-78 21.5 µM | SW-620 5.57 µM | TK-10 13.2 µM | U-251 15.8 µM | UACC-257 3.6 µM | UACC-62 2.33 µM | UO-31 24.3 µM | XF498 13.1 µM
9.62 µM: HCT-15
